In US11167059B2, “Compositions with reactive ingredients, and wound dressings, apparatuses, and methods” (KCI Licensing, Inc., priority 2010, dated 2021):

Legend:
Format in all cases: cell-based
MRSA [1] = assay: Log reduction, single cycle, MRSA; settings: for ΔLog - MRSA 30 sec.: 30 sec. exposure; for ΔLog - MRSA 5 min.: 5 min. exposure
Experimental: (§1) Referring now to FIG. 17, the experiments described above for FIG. 14 were also performed with additional foams, one foam in which 1 gram of Calcium hypochlorite salt was infused (D100, shown as left column for each cycle), and one foam in which 2 grams of Calcium hypochlorite salt was dispersed (D200, shown as right column for each cycle). […] As discussed additionally below, the minimum concentration is significant because testing identified concentrations of hypochlorite-ion as low as 0.5-0.7 mM to have effective antibacterial and antimicrobial properties. Additional testing was performed to measure the zone of inhibition (ZOI) and Log Reduction of microbes for various samples of released aqueous solutions having various concentrations of hypochlorite ion, as listed in Tables 2 and 3. Table 2 lists ZOI and Log reduction data for a single cycle measured at hold times (exposure duration) of 30 seconds and 5 minutes of bacterial exposure to solution. Table 3 lists ZOI and Log reduction data for multiple cycles (each cycle including introduction of hypochlorite solution, and removal of solution prior to beginning next cycle). In the ZOI experimentation, foam discs having a diameter of 8 millimeters (mm) and a height of 5 mm were each saturated with hypochlorite-ion solution as indicated. Table 3 also lists the initial microbe count in log form (10^X, where X is listed in Table 2), log reduction in microbe count, and ZOI in mm. For the data of Table 3, the initial concentration (1×) of hypochlorite ion in solution was 5.7 mM of hypochlorite ion, which corresponds to 0.041% w/v of Ca(OCl)^2. In the Log reduction experimentation, the microbes were exposed to the respective concentration of solution for 30 seconds per cycle. […] The bold entries in Table 3 are indicative of substantially all microbes being killed. In the biofilm eradication cycles listed in Table 6 below, probes were cultured with microbes and incubated to permit formation of a biofilm on the probe. The probe was then exposed to solutions having various concentrations of Calcium hypochlorite solution for multiple cycles, with each cycle including exposure of the probe to solution for a duration of 5 minutes.

C. alb. [2] = assay: Log reduction, single cycle, C. alb.; settings: for ΔLog - C. alb. 30 sec.: 30 sec. exposure; for ΔLog - C. alb. 5 min.: 5 min. exposure
Experimental: as §1

MRSA [3] = assay: zone of inhibition (ZOI), foam discs saturated with solution, MRSA; settings: 8 mm foam disc saturated with solution
Experimental: as §1

C. alb. [4] = assay: zone of inhibition (ZOI), foam discs saturated with solution, C. alb.; settings: 8 mm foam disc saturated with solution
Experimental: as §1

[5] = tested on: Staphylococcus aureus ATCC 10832; assay: Log reduction, multiple cycles, S. aureus ATCC 10832; settings: 30 seconds per cycle
Experimental: as §1

[6] = tested on: Staphylococcus aureus USA 400 (MRSA); assay: Log reduction, multiple cycles, S. aureus USA 400 (MRSA); settings: 30 seconds per cycle
Experimental: as §1

[7] = tested on: Pseudomonas aeruginosa ATCC 27853; assay: Minimum Bactericidal Concentration (MBC), P. aeruginosa; settings: % w/v Ca(OCl)2 in water
Experimental: as §1, with “The probe was then exposed to solutions having various concentrations of Calcium hypochlorite solution for multiple cycles, with each cycle including exposure of the probe to solution for a duration of 5 minutes.” left out

[8] = tested on: Staphylococcus aureus ATCC 10832; assay: Minimum Bactericidal Concentration (MBC), S. aureus ATCC 10832; settings: % w/v Ca(OCl)2 in water
Experimental: as §1, with “The probe was then exposed to solutions having various concentrations of Calcium hypochlorite solution for multiple cycles, with each cycle including exposure of the probe to solution for a duration of 5 minutes.” left out

[9] = tested on: Pseudomonas aeruginosa ATCC 27853; assay: Minimum Biofilm Eradication Concentration (MBEC), P. aeruginosa; settings: Pseudomonas aeruginosa ATCC 27853 biofilm on probe, 5 minutes per cycle, % w/v Ca(OCl)2
Experimental: as §1, with “The probe was then exposed to solutions having various concentrations of Calcium hypochlorite solution for multiple cycles, with each cycle including exposure of the probe to solution for a duration of 5 minutes.” left out

[10] = tested on: Staphylococcus aureus ATCC 10832; assay: Minimum Biofilm Eradication Concentration (MBEC), S. aureus ATCC 10832; settings: Staphylococcus aureus ATCC 10832 biofilm on probe, 5 minutes per cycle, % w/v Ca(OCl)2
Experimental: as §1, with “The probe was then exposed to solutions having various concentrations of Calcium hypochlorite solution for multiple cycles, with each cycle including exposure of the probe to solution for a duration of 5 minutes.” left out

[11] = tested on: Staphylococcus aureus USA 400 (MRSA); assay: Minimum Biofilm Eradication Concentration (MBEC), S. aureus USA 400 (MRSA); settings: Staphylococcus aureus USA 400 (MRSA) biofilm on probe, 5 minutes per cycle, % w/v Ca(OCl)2
Experimental: as §1, with “The probe was then exposed to solutions having various concentrations of Calcium hypochlorite solution for multiple cycles, with each cycle including exposure of the probe to solution for a duration of 5 minutes.” left out

[12] = Sample Dilution 1x (5.7 mM hypochlorite ion, 0.041% w/v Ca(OCl)2)
[13] = Sample Dilution 2x of 5.7 mM hypochlorite ion
[14] = Sample Dilution 4x of 5.7 mM hypochlorite ion
[15] = Sample Dilution 8x of 5.7 mM hypochlorite ion (lowest concentration, 0.7 mM)

hypochlorite ion [OCl^− Solutions]
ΔLog - MRSA 30 sec. (MRSA [1]; 0.8 mM HOCl/OCl−): 2.96
ΔLog - MRSA 5 min. (MRSA [1]; 0.8 mM HOCl/OCl−): 2.99
ΔLog - MRSA 30 sec. (MRSA [1]; 1.9 mM HOCl/OCl−): 2.93
ΔLog - MRSA 5 min. (MRSA [1]; 1.9 mM HOCl/OCl−): 4.09
ΔLog - MRSA 30 sec. (MRSA [1]; 3.1 mM HOCl/OCl−): 3.55
ΔLog - MRSA 5 min. (MRSA [1]; 3.1 mM HOCl/OCl−): >7.13
ΔLog - MRSA 30 sec. (MRSA [1]; 4.0 mM HOCl/OCl−): 5.52
ΔLog - MRSA 5 min. (MRSA [1]; 4.0 mM HOCl/OCl−): >7.13
ΔLog - MRSA 30 sec. (MRSA [1]; 10.7 mM HOCl/OCl−): >6.93
ΔLog - MRSA 5 min. (MRSA [1]; 10.7 mM HOCl/OCl−): >7.13
ΔLog - MRSA 30 sec. (MRSA [1]; 15.7 mM HOCl/OCl−): >6.93
ΔLog - MRSA 5 min. (MRSA [1]; 15.7 mM HOCl/OCl−): >7.13
ΔLog - C. alb. 30 sec. (C. alb. [2]; 0.8 mM HOCl/OCl−): 2.87
ΔLog - C. alb. 5 min. (C. alb. [2]; 0.8 mM HOCl/OCl−): >7.18
ΔLog - C. alb. 30 sec. (C. alb. [2]; 1.9 mM HOCl/OCl−): 2.94
ΔLog - C. alb. 5 min. (C. alb. [2]; 1.9 mM HOCl/OCl−): 3.77
ΔLog - C. alb. 30 sec. (C. alb. [2]; 3.1 mM HOCl/OCl−): 3.08
ΔLog - C. alb. 5 min. (C. alb. [2]; 3.1 mM HOCl/OCl−): >7.18
ΔLog - C. alb. 30 sec. (C. alb. [2]; 4.0 mM HOCl/OCl−): 3.94
ΔLog - C. alb. 5 min. (C. alb. [2]; 4.0 mM HOCl/OCl−): >7.18
ΔLog - C. alb. 30 sec. (C. alb. [2]; 10.7 mM HOCl/OCl−): 7.18
ΔLog - C. alb. 5 min. (C. alb. [2]; 10.7 mM HOCl/OCl−): >7.18
ΔLog - C. alb. 30 sec. (C. alb. [2]; 15.7 mM HOCl/OCl−): 3.50
ΔLog - C. alb. 5 min. (C. alb. [2]; 15.7 mM HOCl/OCl−): >7.18
ZOI, D in mm MRSA (MRSA [3]; 0.8 mM HOCl/OCl−): 0.0 mm
ZOI, D in mm MRSA (MRSA [3]; 1.9 mM HOCl/OCl−): 0.0 mm
ZOI, D in mm MRSA (MRSA [3]; 3.1 mM HOCl/OCl−): 0.0 mm
ZOI, D in mm MRSA (MRSA [3]; 4.0 mM HOCl/OCl−): 0.0 mm
ZOI, D in mm MRSA (MRSA [3]; 10.7 mM HOCl/OCl−): 13.0 mm
ZOI, D in mm MRSA (MRSA [3]; 15.7 mM HOCl/OCl−): 13.0 mm
ZOI, D in mm C. alb. (C. alb. [4]; 0.8 mM HOCl/OCl−): 15.0 mm
ZOI, D in mm C. alb. (C. alb. [4]; 1.9 mM HOCl/OCl−): 24.3 mm
ZOI, D in mm C. alb. (C. alb. [4]; 3.1 mM HOCl/OCl−): 22.0 mm
ZOI, D in mm C. alb. (C. alb. [4]; 4.0 mM HOCl/OCl−): 34.3 mm
ZOI, D in mm C. alb. (C. alb. [4]; 10.7 mM HOCl/OCl−): 45.7 mm
ZOI, D in mm C. alb. (C. alb. [4]; 15.7 mM HOCl/OCl−): 44.3 mm
Log Reduction Staphylococcus aureus ATCC 10832 1 Cycle [5, 12]: 3.21
Log Reduction Staphylococcus aureus ATCC 10832 3 Cycles [5, 12]: 2.82
Log Reduction Staphylococcus aureus ATCC 10832 5 Cycles [5, 12]: 2.66
Log Reduction Staphylococcus aureus ATCC 10832 1 Cycle [5, 13]: 3.21
Log Reduction Staphylococcus aureus ATCC 10832 3 Cycles [5, 13]: 2.82
Log Reduction Staphylococcus aureus ATCC 10832 5 Cycles [5, 13]: 2.66
Log Reduction Staphylococcus aureus ATCC 10832 1 Cycle [5, 14]: 3.21
Log Reduction Staphylococcus aureus ATCC 10832 3 Cycles [5, 14]: 2.82
Log Reduction Staphylococcus aureus ATCC 10832 5 Cycles [5, 14]: 2.66
Log Reduction Staphylococcus aureus ATCC 10832 1 Cycle [5, 15]: 3.21
Log Reduction Staphylococcus aureus ATCC 10832 3 Cycles [5, 15]: 2.82
Log Reduction Staphylococcus aureus ATCC 10832 5 Cycles [5, 15]: 2.66
Log Reduction Staphylococcus aureus USA 400 (MRSA) 1 Cycle [6, 12]: 4.15
Log Reduction Staphylococcus aureus USA 400 (MRSA) 3 Cycles [6, 12]: 3.63
Log Reduction Staphylococcus aureus USA 400 (MRSA) 5 Cycles [6, 12]: 3.91
Log Reduction Staphylococcus aureus USA 400 (MRSA) 1 Cycle [6, 13]: 4.15
Log Reduction Staphylococcus aureus USA 400 (MRSA) 3 Cycles [6, 13]: 3.63
Log Reduction Staphylococcus aureus USA 400 (MRSA) 5 Cycles [6, 13]: 3.91
Log Reduction Staphylococcus aureus USA 400 (MRSA) 1 Cycle [6, 14]: 4.15
Log Reduction Staphylococcus aureus USA 400 (MRSA) 3 Cycles [6, 14]: 3.63
Log Reduction Staphylococcus aureus USA 400 (MRSA) 5 Cycles [6, 14]: 3.91
Log Reduction Staphylococcus aureus USA 400 (MRSA) 1 Cycle [6, 15]: 4.15
Log Reduction Staphylococcus aureus USA 400 (MRSA) 3 Cycles [6, 15]: 3.63
Log Reduction Staphylococcus aureus USA 400 (MRSA) 5 Cycles [6, 15]: 3.91
Minimum Bactericidal Concentration (MBC) 1 Cycle ([7]; 1 Cycle): <0.005% w/v
Minimum Bactericidal Concentration (MBC) 3 Cycles ([7]; 3 Cycles): <0.005% w/v
Minimum Bactericidal Concentration (MBC) 5 Cycles ([7]; 5 Cycles): <0.005% w/v
Minimum Bactericidal Concentration (MBC) 1 Cycle ([8]; 1 Cycle): <0.005% w/v
Minimum Bactericidal Concentration (MBC) 3 Cycles ([8]; 3 Cycles): <0.005% w/v
Minimum Bactericidal Concentration (MBC) 5 Cycles ([8]; 5 Cycles): <0.005% w/v
Minimum Biofilm Eradication Concentration (MBEC) 1 Cycle ([9]; 1 Cycle): >0.041% w/v
Minimum Biofilm Eradication Concentration (MBEC) 3 Cycles ([9]; 3 Cycles): 0.021% w/v
Minimum Biofilm Eradication Concentration (MBEC) 5 Cycles ([9]; 5 Cycles): 0.041% w/v
Minimum Biofilm Eradication Concentration (MBEC) 1 Cycle ([10]; 1 Cycle): <0.005% w/v
Minimum Biofilm Eradication Concentration (MBEC) 3 Cycles ([10]; 3 Cycles): <0.005% w/v
Minimum Biofilm Eradication Concentration (MBEC) 5 Cycles ([10]; 5 Cycles): <0.005% w/v
Minimum Biofilm Eradication Concentration (MBEC) 1 Cycle ([11]; 1 Cycle): <0.005% w/v
Minimum Biofilm Eradication Concentration (MBEC) 3 Cycles ([11]; 3 Cycles): <0.005% w/v
Minimum Biofilm Eradication Concentration (MBEC) 5 Cycles ([11]; 5 Cycles): <0.005% w/v
